# Source: publication PMC4229968, “The Inhibition of the Components from Shengmai Injection towards UDP-Glucuronosyltransferase” (Evidence-based Complementary and Alternative Medicine : eCAM, 2014)
# What was measured:
# Assay type in all cases: in vitro ADME
# UGT1A8 = biological target: T1, UGT1A8 (Homo sapiens, UniProt Q9HAW9); experiment: Recombinant UGT1A8-catalyzed 4-MU glucuronidation inhibition; conditions: for activity at 100 µM: UGT1A8, 100 μM of compound, 4-MU substrate, read-out: residual activity
# T1 construct: purchased BD Gentest Corp. (Woburn, MA, USA); host or cells: baculovirus-infected insect cells
# T1 sequence (Q9HAW9 26-530): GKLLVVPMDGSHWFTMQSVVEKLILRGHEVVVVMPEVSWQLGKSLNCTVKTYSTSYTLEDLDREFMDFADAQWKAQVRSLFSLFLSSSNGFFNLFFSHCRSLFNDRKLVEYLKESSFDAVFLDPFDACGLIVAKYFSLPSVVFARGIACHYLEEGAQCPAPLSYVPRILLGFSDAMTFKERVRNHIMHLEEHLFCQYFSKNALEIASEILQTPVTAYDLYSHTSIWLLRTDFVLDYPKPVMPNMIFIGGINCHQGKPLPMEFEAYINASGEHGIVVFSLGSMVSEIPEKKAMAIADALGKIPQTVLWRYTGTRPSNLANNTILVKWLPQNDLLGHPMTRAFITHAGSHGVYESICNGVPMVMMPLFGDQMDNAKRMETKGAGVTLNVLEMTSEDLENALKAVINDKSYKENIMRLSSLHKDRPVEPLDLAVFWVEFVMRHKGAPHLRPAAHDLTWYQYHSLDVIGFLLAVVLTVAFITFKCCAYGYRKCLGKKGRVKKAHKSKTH
# Text: (§1) 4-Methylumbelliferone (4-MU), 4-methylumbelliferone-β-D-glucuronide (4-MUG), Tris-HCl, 7-hydroxycoumarin, and uridine-5′-diphosphoglucuronic acid (UDPGA) (trisodium salt) were purchased from Sigma-Aldrich (St. Louis, MO). Recombinant human UGT isoforms (UGT1A1, UGT1A3, UGT1A4, UGT1A6, UGT1A7, UGT1A8, UGT1A9, UGT1A10, UGT2B4, UGT2B7, and UGT2B15) expressed in baculovirus-infected insect cells were obtained from BD Gentest Corp. (Woburn, MA, USA). Ophiopogonin D (OD), ophiopogonin D′ (OD′), methylophiopogonanone A (MA), methylophiopogonanone B (MB), and ruscorectal (RU) were purchased from Sichuan Weikeqi Biotechnology Company (Chengdu, Sichuan, China). The purity of these compounds was above 95%. All other reagents were of HPLC grade or of the highest grade commercially available.
# (§2) 4-MU, the nonspecific probe substrate for all the UGT isoforms except UGT1A4, was used in the present study to initially screen the inhibition potential of maidong's components towards UGT isoforms as previously reported. In brief, the incubation system (total volume = 200 μL) consisted of recombinant UGTs, 5 mM UDPGA, 5 mM MgCl2, 50 mM Tris-HCl (pH = 7.4), and 4-MU in the absence or presence of different concentrations of maidong's components. The compounds were dissolved in DMSO, and the final concentration of DMSO was below 0.5% (v/v). The used incubation time and protein concentration were previously determined to ensure the reaction rate within the linear range. The 4-MU concentration was equal to known K m or S 50 values for each UGT isoform. After 5 min preincubation at 37°C, the incubation reaction was initiated via adding UDPGA to the mixture system. The reactions were quenched by adding 100 μL acetonitrile with 7-hydroxycoumarin (100 μM) as internal standard. Centrifuged at 20000 ×g for 10 min, an aliquot of supernatant was transferred to an autoinjector vial for HPLC analysis. The HPLC system (Shimadzu, Kyoto, Japan) contained a SCL-10A system controller, two LC-10AT pumps, a SIL-10A autoinjector, and a SPD-10AVP UV detector. Chromatographic separation was carried out using a C18 column (4.6 × 200 mm, 5 μm, Kromasil) at a flow rate of 1 mL/min and UV detector at 316 nm. The mobile phase consisted of acetonitrile (A) and H2O containing 0.5% (v/v) formic acid (B). The following gradient condition was used: 0–15 min, 95–40% B; 15–20 min, 10% B; 20–30 min, 95% B.
# To determine the inhibition kinetic type and parameters (K i), the reaction velocity (V) was determined at multiple concentrations of maidong's components and 4-MU (or TFP). Dixon plot and Lineweaver-Burk plot were used to fit the data. The inhibition kinetic type was evaluated through determining the intersection point in the Dixon and Lineweaver-Burk plots.
# K m value is the substrate concentration in which the velocity reached half of the maximum velocity (V max) of the reaction. K i value is the inhibition constant.
# UGT1A9 = biological target: T2, UGT1A9 (Homo sapiens, UniProt O60656); experiment: Recombinant UGT1A9-catalyzed 4-MU glucuronidation inhibition; conditions: pH 7.4, probe 4-methylumbelliferone (4-MU), UGT1A9, 100 μM of compound, 4-MU substrate, read-out: residual activity
# T2 construct: purchased BD Gentest Corp. (Woburn, MA, USA); host or cells: baculovirus-infected insect cells
# T2 sequence (O60656 26-530): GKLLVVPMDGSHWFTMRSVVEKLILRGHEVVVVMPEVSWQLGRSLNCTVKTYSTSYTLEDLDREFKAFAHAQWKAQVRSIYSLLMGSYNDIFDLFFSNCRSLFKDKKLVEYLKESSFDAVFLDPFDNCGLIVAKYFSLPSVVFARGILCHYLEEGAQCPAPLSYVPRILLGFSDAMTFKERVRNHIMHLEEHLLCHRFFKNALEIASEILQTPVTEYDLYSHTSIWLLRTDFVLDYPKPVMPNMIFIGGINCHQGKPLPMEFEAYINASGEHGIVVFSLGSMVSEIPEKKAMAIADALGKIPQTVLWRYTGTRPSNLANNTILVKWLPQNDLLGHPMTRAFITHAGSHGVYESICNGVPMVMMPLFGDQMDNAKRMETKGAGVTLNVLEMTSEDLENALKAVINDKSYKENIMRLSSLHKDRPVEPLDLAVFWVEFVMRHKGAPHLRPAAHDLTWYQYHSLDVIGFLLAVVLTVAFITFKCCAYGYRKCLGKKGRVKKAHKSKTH
# Text: as §1, §2
# UGT2B15 = biological target: T3, UGT2B15 (Homo sapiens, UniProt P54855); experiment: Recombinant UGT2B15-catalyzed 4-MU glucuronidation inhibition; conditions: pH 7.4, probe 4-methylumbelliferone (4-MU), UGT2B15, 100 μM of compound, 4-MU substrate, read-out: residual activity
# T3 construct: purchased BD Gentest Corp. (Woburn, MA, USA); host or cells: baculovirus-infected insect cells
# T3 sequence (P54855 24-530): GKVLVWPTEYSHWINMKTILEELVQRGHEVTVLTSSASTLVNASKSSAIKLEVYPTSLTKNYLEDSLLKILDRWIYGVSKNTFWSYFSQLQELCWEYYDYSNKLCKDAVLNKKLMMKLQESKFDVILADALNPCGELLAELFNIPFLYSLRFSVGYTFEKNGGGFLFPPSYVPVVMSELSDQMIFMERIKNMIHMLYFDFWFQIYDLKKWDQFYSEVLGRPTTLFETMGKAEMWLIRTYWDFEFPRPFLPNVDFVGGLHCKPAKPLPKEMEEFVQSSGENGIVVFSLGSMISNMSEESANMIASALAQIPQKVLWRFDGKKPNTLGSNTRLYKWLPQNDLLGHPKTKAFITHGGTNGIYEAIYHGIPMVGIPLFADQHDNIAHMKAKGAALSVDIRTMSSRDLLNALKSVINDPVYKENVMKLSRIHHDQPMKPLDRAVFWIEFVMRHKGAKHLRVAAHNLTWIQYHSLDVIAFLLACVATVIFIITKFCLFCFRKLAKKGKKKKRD
# Text: as §1, §2
# [1] = human, pH 7.4, probe 4-methylumbelliferone (4-MU)
SMILES,Ki (UGT1A8),"inhibition type (UGT1A8; UGT1A8, Dixon and Lineweaver-Burk plots)",activity at 100 µM (UGT1A8; [1]),"inhibition at 100 µM (UGT1A8; human, pH 7.4, probe 4-methylumbelliferone (4-MU), UGT1A8, at 100 μM, read-out: inhibition percent)",activity at 100 µM (UGT1A9),activity at 100 µM (UGT2B15)
"C[C@@H]1CC[C@@]2(OC1)O[C@H]1C[C@H]3[C@@H]4CC=C5C[C@@H](O)C[C@@H](O[C@@H]6O[C@H](C)[C@H](O)[C@H](O[C@@H]7OC[C@@H](O)[C@H](O)[C@H]7O)[C@H]6O[C@@H]6O[C@@H](C)[C@H](O)[C@@H](O)[C@H]6O)[C@]5(C)[C@H]4CC[C@]3(C)[C@H]1[C@@H]2C [OD, ophiopogonin D]",40.1 µM,competitively inhibited,17.3 ± 0.9%,82.7%,135 ± 1.5%,36.9%
"C[C@@H]1CC[C@@]2(OC1)O[C@H]1C[C@H]3[C@@H]4CC=C5C[C@@H](O[C@@H]6O[C@H](CO)[C@@H](O)[C@H](O[C@@H]7OC[C@@H](O)[C@H](O)[C@H]7O)[C@H]6O[C@@H]6O[C@@H](C)[C@H](O)[C@@H](O)[C@H]6O)CC[C@]5(C)[C@H]4CC[C@]3(C)[C@H]1[C@@H]2C [OD′, ophiopogonin D′]",–,–,18.9 ± 6.6%,–,134 ± 2.1%,35.5 ± 1.7%
"Cc1c(O)c(C)c2c(c1O)C(=O)[C@H](Cc1ccc3c(c1)OCO3)CO2 [MA, methylophiopogonanone A]",–,–,20.5 ± 2.1%,–,38.7%,23.8 ± 2.8%
"COc1ccc(C[C@@H]2COc3c(C)c(O)c(C)c(O)c3C2=O)cc1 [MB, methylophiopogonanone B]",–,–,85 ± 4.5%,–,68.2 ± 1.5%,56.1 ± 9.8%
"CC1CCC2(OC1)OC1CC3C4CC=C5CC(O)CC(O)C5(C)C4CCC3(C)C1C2C (stereo not drawn) [RU, ruscorectal]",–,–,72 ± 3%,–,110.7 ± 1.1%,55.5 ± 19.6%
